Source: US10723706B2, “Perk inhibitors and uses thereof in treating diseases associated with aggregation-prone proteins” (Ramot at Tel-Aviv University Ltd., priority 2016, dated 2020)
“Also recorded” adds a separate entry of the source.

Experiments:
wild type (WT) mice = test: Toxicity in wild type mice, continuous subcutaneous dosing by Alzet pump; type: in vivo, mouse; settings: 6 mg/kg for 2 weeks
STHdhQ111/111 cells [1] = test: Rescue from UPR-induced cell death (tunicamycin), PI cell cycle FACS, sub-G0/G1 fraction; type: cell-based
Experimental: (§1) STHdhQ7/7 and STHdhQ111/111 cells were grown as described in Leitman et al. [PLoS One 2014, 9(3):e90803].
(§2) After the indicated treatment times in full medium or in DMEM without serum, cells were incubated with propidium iodide (PI) solution ([…]) and read by flow cytometry as described in Leitman et al. [PLoS One 2014, 9(3):e90803]. Cells in sub-G0/G1 were counted as apoptotic/dead cells.
(§3) The activity of the novel inhibitors, compared to A4, in preventing cytotoxicity induced by pathogenic Htt, was then tested. A stable murine striatal cell line expressing full-length polyQ-expanded Htt, STHdhQ^111/111, was used.

[2] = Weight evaluation after pump implantation; type: in vivo, mouse; settings: TG and WT mice, 7 weeks after pump implantation, 1 mg/kg for 28 days
Experimental: (§4) For the therapeutic assessment of MK-28 delivery, Alzet pumps model 1004, with a rate of 0.11 μl/hour and 28 days compound delivery were used. Five groups of mice were studied: (1) Transgenic (TG) treated with MK-28, (2) TG without treatment (pumps with vehicle), (3) Wild-type (WT) treated with MK-28, (4) WT without treatment (pumps with vehicle), (5) WT without pumps.
(§5) Alzet pumps were implanted at 4 weeks of age and MK-28 was administered at 1 mg/kg with continuous dosing for 28 days. This concentration is in a typical clinical dose range. The mice's motor function and coordination were tested by Rotarod, and limb clasping, ledge, gait and kyphosis were also tested. Vocalization tests were also performed and survival was assessed. Tests were performed in two independent blind experiments.

R6/2 transgenic mice [3] = test: Blood glucose levels in R6/2 HD model and WT mice; type: in vivo, mouse
Experimental: Animals were treated for 4 weeks starting at 4 weeks of age with 1 mg/ml MK-28 or with vehicle (DMSO/PEG400 1:1), delivered using Alzet pumps. […] N=13 TG, 13 TG+MK28, 16 WT, 15 WT+MK28, 15 None.
The HD mouse model used was the R6/2 transgenic mice model B6CBA-R6/2 (CAG 160) Jackson Lab USA. R6/2 mice express only the exon 1 of the human Htt gene, including 150 CAG repeats driven by the human Htt promoter directly influencing the transgene expression levels and thereby the development of HD-like pathology. Out of all the existing mouse models of HD, the R6/2 mouse is one that develops symptoms the most rapidly and has the most widespread occurrence of Htt inclusions in the brain. Furthermore, these lines are the most widely used in therapeutic trials. In these animals, the initial signs of motor symptoms commence around 3 weeks of age. […] While R6/2 mice are initially hyperactive, they gradually reduce their motor activity and become hypoactive around 8 weeks of age. Their motor function and coordination progressively deteriorate, and can be detected as a reduction in the time they can stay on a rotating rod, the so-called Rotarod. […]
Alzet pumps were implanted at 4 weeks of age and MK-28 was administered at 1 mg/kg with continuous dosing for 28 days. […] Vocalization tests were also performed and survival was assessed. […]

R6/2 transgenic mice [4] = test: Survival of R6/2 mice; type: in vivo, mouse
Experimental: Animals were treated as described in FIGS. 7-9. Transgenic mice receiving MK-28 (blue) or vehicle (red) were analyzed for mice survival (n=13/group). Gehan-Breslow-Wilcoxon Test for comparisons of Kaplan-Meier survival curves indicated a significant increase in the survival of MK-28 treated mice compared to untreated littermates (median survival 97 and 89 days, respectively, p=0.0469). Ratio 1.887, 95% CI of ratio 0.7726 to 4.611.
as §5

[5] = Pharmacokinetics and blood brain barrier penetration, LC/MS/MS; type: in vivo, mouse; settings: WT mice, 10 mg/kg IP
Experimental: FIG. 5 Analysis of Pharmacokinetics (PK) and blood brain barrier (BBB) penetration was done in WT mice using a method based on LC/MS/MS.
Pharmacokinetics (PK) and blood brain barrier (BBB) penetration were analyzed in WT mice.

R6/2 transgenic mice [6] = test: Ultrasonic vocalization of R6/2 mice; type: in vivo, mouse
Experimental: Mice were treated as described in FIGS. 7 and 8. Transgenic mice receiving (MK-28 TG+) or vehicle (TG) were analyzed for vocalization as number of syllables in 5 minutes intervals. (n=3-4, p=0.059).
as §5
Vocalization was evaluated, as it reflects motor and cognitive abilities.

R6/2 transgenic mice [7] = test: Rotarod test in R6/2 HD model mice; type: in vivo, mouse; settings: 1 mg/kg continuous for 28 days
Experimental: Motor activity was assessed by the rotarod test using the San Diego Instrument, Rotor-Rod (San Diego Instruments, CA, USA) (0-25 RPM). R6/2 mice and controls were tested every week after pump transplantation. Each test consisted of 3 consecutive measurements of 5 minutes on 4 rpm, 60 minutes of rest, 3 times 0-40 rpm. The latency to fall was recorded.
as §4
Alzet pumps were implanted at 4 weeks of age and MK-28 was administered at 1 mg/kg with continuous dosing for 28 days. This concentration is in a typical clinical dose range. […] Vocalization tests were also performed and survival was assessed. […]
Rotarod analysis was performed by assessing the maximum performance of each animal during three consecutive trials at different time points. The analysis evaluated the motor behavior of animals starting one week after the pump implantation (equivalent to the mice fifth week of life) and ending by seven weeks after first MK-28 delivery.

STHdhQ111/111 cells [8] = test: Rescue of cells incubated in DMEM without serum and without Tun, PI cell cycle FACS; type: cell-based, murine; settings: 48 hours in DMEM without serum and without Tun
Experimental: as §1, §2, §3

cells = test: Intrinsic cytotoxicity on cells; type: cell-based
[9] = tested on: betaTC-tet pancreatic islet beta-cell line; test: Toxicity in pancreatic beta cells; type: cell-based, mouse
Experimental: MK-28 toxicity was tested in pancreatic beta cells, the type of cell that is most sensitive when ER stress response pathways are affected. A conditionally transformed mouse pancreatic islet beta-cell line (betaTC-tet), such as described by Efrat [Ann NY Acad Sci 1999, 875:286-293], was used. These cells produce high amounts of insulin, resulting in a high protein load in the ER, making them very sensitive to ER stress and other stimuli, such as cytokine effects. Compromising any of the UPR branches leads to cytotoxicity in these cells. MK-28 was compared to the ER stressor tunicamycin (Tun).

CN(/N=C\c1ccc(O)c(O)c1)c1nc(-c2ccccc2)cc(-c2ccccc2)n1 [Compound 3, 2-{N-methyl-N′-(3,4-dihydroxybenzylidene)hydrazinyl}-4,6-diphenylpyrimidine]
toxic effects in WT mice (wild type (WT) mice): no toxic effects were observed
rescue from UPR-induced cell death (cytotoxicity) (STHdhQ111/111 cells [1]; Tun for 48 hours): significantly more potent than A4
fold lower IC50 than A4 for inhibition of cytotoxicity (STHdhQ111/111 cells [1]; additional ER stress caused by tunicamycin): > 3 fold
weight versus vehicle [2]: no significant differences
blood glucose levels in TG mice (R6/2 transgenic mice [3]; R6/2 TG mice, 4 weeks treatment by Alzet pump from 4 weeks of age): reduced
blood glucose levels in WT mice (R6/2 transgenic mice [3]; WT mice, 4 weeks treatment by Alzet pump, listed as MK-28): no effect; also recorded: did not affect glucose levels
delay of death initiation versus vehicle (R6/2 transgenic mice [4]; R6/2 TG mice): ~10 days
increase in median survival versus untreated TG (R6/2 transgenic mice [4]; R6/2 TG mice): 8 days
median survival (R6/2 transgenic mice [4]; R6/2 TG mice treated age weeks 4 to 8, n=13/group, p=0.0469): 97 days
Ratio, comparison of Kaplan-Meier survival curves (R6/2 transgenic mice [4]; R6/2 TG mice, 95% CI of ratio 0.7726 to 4.611): 1.887
BBB penetration, peak brain concentration ([5]; brain): 57 ng/mL
T1/2 in brain ([5]; brain): 80 min
time of peak brain concentration ([5]; brain): 40 min
T1/2 in plasma ([5]; plasma): 30 min
peak plasma concentration ([5]; plasma): 105 ng/mL
time of peak plasma concentration ([5]; plasma): 40 min
Kp at 40 minutes ([5]; mouse, brain, read-out: BBB penetration peak as percent of the concentration in plasma): > 0.5
vocalization, number of syllables (R6/2 transgenic mice [6]; R6/2 TG mice treated with MK-28, n=3-4, p=0.059): 13.75 syllables in 5 minutes
vocalization effect versus untreated R6/2 (R6/2 transgenic mice [6]; R6/2 TG mice, listed as MK-28): three fold difference; also recorded: improved
Rotarod motor performance of TG mice versus untreated TG (R6/2 transgenic mice [7]; R6/2 TG mice, p<0.05, listed as MK-28, 1 mg/kg): significant improvement in general motor performance; also recorded: significant improvement in motor function
Rotarod motor performance of WT mice (R6/2 transgenic mice [7]; WT mice): no compromised motor performance
protective (rescue) effect without ER stressor (STHdhQ111/111 cells [8]): strong protective effect, in the low micromolar range
protective (rescue) effect without ER stressor (STHdhQ111/111 cells [8]; listed as MK-28): strong rescue effect
intrinsic cytotoxicity on cells (cells): neither MPGL1 nor MK-28 exhibited intrinsic cytotoxicity
toxicity in pancreatic beta cells [9]: very low toxicity
